Laboratory results: paper PMC6001238, “Iterative Chemical Engineering of Vancomycin Leads to Novel Vancomycin Analogs With a High in Vitro Therapeutic Index” (Frontiers in Microbiology, 2018)
Values after ≈ are worked out from the molar mass of the structure shown.

Assays:
[1] = test system: E. faecalis VSE 1; experiment: MIC, broth microdilution, vancomycin-sensitive E. faecalis (VSE 1); format: cell-based, Enterococcus faecalis; conditions: for MIC: Enterococcus faecalis VSE 1 (vancomycin-sensitive), read-out: MIC; for MIC-fold improvement vs. vancomycin: VSE 1, ratio of MIC of vancomycin and MIC of analogue
Procedure, shortened: (§1)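 Read-out: lowest concentration inhibiting growth in broth microdilution, CLSI method. Water and broth-only wells acted as controls; in one case 10 μM vancomycin (final) was present with the compound.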

[2] = test system: E. faecalis VRE 6; experiment: MIC, broth microdilution, vancomycin-resistant E. faecalis VRE 6 (VanA); format: cell-based, Enterococcus faecalis; conditions: for MIC: Enterococcus faecalis VRE 6 (vancomycin-resistant), read-out: MIC; for MIC-fold improvement vs. vancomycin: VRE 6, ratio of MIC of vancomycin and MIC of analogue
Procedure, shortened: as §1

[3] = test system: E. faecalis VRE 53; experiment: MIC, broth microdilution, vancomycin-resistant E. faecalis VRE 53 (VanA); format: cell-based, Enterococcus faecalis; conditions: for MIC: Enterococcus faecalis VRE 53 (vancomycin-resistant), read-out: MIC; for MIC-fold improvement vs. vancomycin: VRE 53, ratio of MIC of vancomycin and MIC of analogue
Procedure, shortened: as §1

[4] = test system: E. faecalis VRE 29; experiment: MIC, broth microdilution, vancomycin-resistant E. faecalis VRE 29 (VanA); format: cell-based, Enterococcus faecalis; conditions: for MIC: Enterococcus faecalis VRE 29 (vancomycin-resistant), read-out: MIC; for MIC-fold improvement vs. vancomycin: VRE 29, ratio of MIC of vancomycin and MIC of analogue
Procedure, shortened: as §1

[5] = test system: E. faecalis VRE 37; experiment: MIC, broth microdilution, vancomycin-resistant E. faecalis VRE 37 (VanA); format: cell-based, Enterococcus faecalis; conditions: for MIC: Enterococcus faecalis VRE 37 (vancomycin-resistant), read-out: MIC
Procedure, shortened: as §1

[6] = test system: Murine leukemia (L1210) cells; experiment: Cytostatic activity, L1210 cell proliferation; format: cell-based; conditions: mean ± SD of three experiments; highest concentration tested 250 µM; 2 days; read-out: Toxicity (IC50) L1210
Procedure, shortened: (§2)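 Test compounds, serially diluted, received an equal volume of cell suspension at 300,000–500,000 cells/mL. After 37°C incubation (2 days for L1210, 3 for CEM, 4 for HeLa), cells were enumerated by Coulter counting and 50%-inhibitory concentrations calculated per cell type.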

[7] = test system: human T-lymphocyte (CEM) cells; experiment: Cytostatic activity, CEM cell proliferation; format: cell-based; conditions: mean ± SD of three experiments; highest concentration tested 250 µM; 3 days; read-out: Toxicity (IC50) CEM
Procedure, shortened: as §2

[8] = test system: human cervix carcinoma (HeLa) cells; experiment: Cytostatic activity, HeLa cell proliferation; format: cell-based; conditions: mean ± SD of three experiments; highest concentration tested 250 µM; 4 days; read-out: Toxicity (IC50) HeLa
Procedure, shortened: as §2

[9] = test system: L1210, CEM and HeLa cell lines; experiment: Cytostatic activity, average or summary over L1210, CEM and HeLa; format: cell-based; conditions: average of L1210, CEM and HeLa; read-out: Toxicity (IC50) Average
Procedure, shortened: as §2

[10] = test system: S. aureus VSSA (ATCC 6538); experiment: MIC, broth microdilution, vancomycin-sensitive S. aureus (VSSA/MSSA, ATCC 6538); format: cell-based, Staphylococcus aureus; conditions: for MIC: Staphylococcus aureus VSSA, read-out: MIC; for MIC-fold improvement vs. vancomycin: VSSA, ratio of MIC of vancomycin and MIC of analogue
Procedure, shortened: as §1

[11] = test system: S. aureus VISA/HIP5827; experiment: MIC, broth microdilution, vancomycin-intermediate S. aureus VISA HIP5827; format: cell-based, Staphylococcus aureus; conditions: for MIC: Staphylococcus aureus VISA/HIP5827, read-out: MIC; for MIC-fold improvement vs. vancomycin: VISA/HIP5827, ratio of MIC of vancomycin and MIC of analogue
Procedure, shortened: as §1

[12] = test system: S. aureus VRSA; experiment: MIC, broth microdilution, vancomycin-resistant S. aureus (VRSA); format: cell-based, Staphylococcus aureus; conditions: for MIC: Staphylococcus aureus VRSA, read-out: MIC; for MIC-fold improvement vs. vancomycin: VRSA, ratio of MIC of vancomycin and MIC of analogue
Procedure, shortened: as §1

[13] = test system: MRSA KS2; experiment: MIC, broth microdilution, MRSA KS2; format: cell-based, Staphylococcus aureus; conditions: for MIC-fold improvement vs. vancomycin: MRSA KS2, ratio of MIC of vancomycin and MIC of analogue; for MIC: Staphylococcus aureus MRSA KS2, read-out: MIC
Procedure, shortened: as §1

[14] = test system: MRSA KS6; experiment: MIC, broth microdilution, MRSA KS6; format: cell-based, Staphylococcus aureus; conditions: for MIC-fold improvement vs. vancomycin: MRSA KS6, ratio of MIC of vancomycin and MIC of analogue; for MIC: Staphylococcus aureus MRSA KS6, read-out: MIC
Procedure, shortened: as §1

[15] = test system: MRSA KS89; experiment: MIC, broth microdilution, MRSA KS89; format: cell-based, Staphylococcus aureus; conditions: for MIC-fold improvement vs. vancomycin: MRSA KS8, ratio of MIC of vancomycin and MIC of analogue; for MIC: Staphylococcus aureus MRSA KS8, read-out: MIC
Procedure, shortened: as §1

[16] = test system: MRSA KS1; experiment: MIC, broth microdilution, MRSA KS1; format: cell-based, Staphylococcus aureus; conditions: for MIC-fold improvement vs. vancomycin: MRSA KS1, ratio of MIC of vancomycin and MIC of analogue; for MIC: Staphylococcus aureus MRSA KS1, read-out: MIC
Procedure, shortened: as §1

[17] = test system: Clostridium difficile ATJ ribotype 014/20; experiment: MIC, plate drop assay, C. difficile ATJ ribotype 014/20; format: cell-based; conditions: for MIC-fold improvement vs. vancomycin: C. difficile ATJ ribotype 014/20; for MIC: C. difficile ATJ ribotype 014/20, plate drop assay
Procedure: (§3) Bacterial lawns of both C. difficile strains were prepared by adding 0.5 mL overnight culture to 8 mL sloppy BHI agar (0.4% agar) supplemented with 1.5 g/L CaCl2⋅2H2O and 81.2 g/L MgCl2⋅6H2O, and pouring the mixture into Petri plates. A twofold dilution series of the selected vancomycin analogs, vancomycin ([…]) and daptomycin (25 μM) was spotted (10 μL) on the bacterial lawn. Spots were air-dried and the plates were incubated overnight at 37°C in an anaerobic cabinet. Ultrapure water was included as negative control. The assay was performed in triplicate. Inhibition was observed by cleared spots.

[18] = test system: Clostridium difficile AIU ribotype 027; experiment: MIC, plate drop assay, C. difficile AIU ribotype 027; format: cell-based; conditions: for MIC-fold improvement vs. vancomycin: C. difficile AIU ribotype 027
Procedure: as §3

Row | Structure (SMILES) | MIC [1] [µM] | MIC-fold improvement vs. vancomycin [1] | MIC [2] [µM] | MIC-fold improvement vs. vancomycin [2] | MIC [3] [µM] | MIC-fold improvement vs. vancomycin [3] | MIC [4] [µM] | MIC [5] [µM] | IC50 [6] [µM] | IC50 [7] [µM] | IC50 [8] [µM] | IC50 [9] [µM] | MIC [10] [µM] | MIC-fold improvement vs. vancomycin [10] | MIC [11] [µM] | MIC-fold improvement vs. vancomycin [11] | MIC [12] [µM] | MIC-fold improvement vs. vancomycin [12] | MIC-fold improvement vs. vancomycin [13] | MIC [13] [µM] | further results
1 | CN[C@H](CC(C)C)C(=O)N[C@H]1C(=O)N[C@@H](CC(N)=O)C(=O)N[C@H]2C(=O)N[C@H]3C(=O)N[C@H](C(=O)N[C@H](C(=O)NCC(=O)Nc4ccc(Cl)cc4Cl)c4cc(O)cc(O)c4-c4cc3ccc4O)[C@H](O)c3ccc(c(Cl)c3)Oc3cc2cc(c3O[C@@H]2O[C@H](CO)[C@@H](O)[C@H](O)[C@H]2O[C@H]2C[C@](C)(N)[C@H](O)[C@H](C)O2)Oc2ccc(cc2Cl)[C@H]1O [Vanc-14] | 0.20 (≈ 0.33 µg/mL) | 8 | 1.56 (≈ 2.57 µg/mL) | 128 | 3.13 (≈ 5.17 µg/mL) | 128 | 3.13 (≈ 5.17 µg/mL) | 6.25 (≈ 10.3 µg/mL) | 153 ± 55 | 114 ± 18 | 148 ± 6 | 138 | 0.20 (≈ 0.33 µg/mL) | 4 | 0.10 (≈ 0.165 µg/mL) | 64 | 3.13 (≈ 5.17 µg/mL) | 32 | 4 | 0.20 (≈ 0.33 µg/mL) | MIC-fold improvement vs. vancomycin ([5]; VRE 37, ratio of MIC of vancomycin and MIC of analogue): 128; MIC-fold improvement vs. vancomycin [14]: 2; MIC [14]: 0.39 µM (≈ 0.644 µg/mL); MIC-fold improvement vs. vancomycin [15]: 4; MIC [15]: 0.20 µM (≈ 0.33 µg/mL); MIC-fold improvement vs. vancomycin [16]: 2; MIC [16]: 0.39 µM (≈ 0.644 µg/mL); MIC-fold improvement vs. vancomycin [17]: 22; MIC-fold improvement vs. vancomycin [18]: 29
2 | CNC(CC(C)C)C(=O)NC1C(=O)NC(CC(N)=O)C(=O)NC2C(=O)NC3C(=O)NC(C(=O)NC(C(=O)NCCNC(=O)C=Cc4ccccc4)c4cc(O)cc(O)c4-c4cc3ccc4O)C(O)c3ccc(c(Cl)c3)Oc3cc2cc(c3OC2OC(CO)C(O)C(O)C2OC2CC(C)(N)C(O)C(C)O2)Oc2ccc(cc2Cl)C1O (stereo not drawn) [Vanc-21] | 0.39 (≈ 0.632 µg/mL) | 4 | 1.56 (≈ 2.53 µg/mL) | 128 | 12.5 (≈ 20.3 µg/mL) | 32 | 12.5 (≈ 20.3 µg/mL) | 12.5 (≈ 20.3 µg/mL) | > 250 | > 250 | > 250 | > 250 | 0.78 (≈ 1.26 µg/mL) | 1 | 0.78 (≈ 1.26 µg/mL) | 8 | 1.56 (≈ 2.53 µg/mL) | 64 | 2 | 0.39 (≈ 0.632 µg/mL) | MIC-fold improvement vs. vancomycin [4]: 32; MIC-fold improvement vs. vancomycin [14]: 1; MIC [14]: 0.78 µM (≈ 1.26 µg/mL); MIC-fold improvement vs. vancomycin [15]: 1; MIC [15]: 0.78 µM (≈ 1.26 µg/mL); MIC-fold improvement vs. vancomycin [16]: 1; MIC [16]: 0.78 µM (≈ 1.26 µg/mL); MIC-fold improvement vs. vancomycin [17]: <1.4; MIC [17]: >25 µM; MIC-fold improvement vs. vancomycin [18]: 4
3 | CN[C@H](CC(C)C)C(=O)N[C@H]1C(=O)N[C@@H](CC(N)=O)C(=O)N[C@H]2C(=O)N[C@H]3C(=O)N[C@H](C(=O)N[C@H](C(=O)NCCNC(=O)/C=C/c4ccc(F)cc4)c4cc(O)cc(O)c4-c4cc3ccc4O)[C@H](O)c3ccc(c(Cl)c3)Oc3cc2cc(c3O[C@@H]2O[C@H](CO)[C@@H](O)[C@H](O)[C@H]2O[C@H]2C[C@](C)(N)[C@H](O)[C@H](C)O2)Oc2ccc(cc2Cl)[C@H]1O [Vanc-22] | 0.39 (≈ 0.639 µg/mL) | 4 | 1.56 (≈ 2.56 µg/mL) | 128 | 25 (≈ 41 µg/mL) | 16 | 12.5 (≈ 20.5 µg/mL) | 12.5 (≈ 20.5 µg/mL) | > 250 | > 250 | 76 ± 11 | 192 | 0.39 (≈ 0.639 µg/mL) | 2 | 1.56 (≈ 2.56 µg/mL) | 4 | 3.13 (≈ 5.13 µg/mL) | 32 | 2 | 0.39 (≈ 0.639 µg/mL) | MIC-fold improvement vs. vancomycin [4]: 32; MIC-fold improvement vs. vancomycin [14]: 2; MIC [14]: 0.39 µM (≈ 0.639 µg/mL); MIC-fold improvement vs. vancomycin [15]: 2; MIC [15]: 0.39 µM (≈ 0.639 µg/mL); MIC-fold improvement vs. vancomycin [16]: 2; MIC [16]: 0.39 µM (≈ 0.639 µg/mL); MIC-fold improvement vs. vancomycin [17]: 5.6; MIC [17]: 6.25 µM (≈ 10.2 µg/mL); MIC-fold improvement vs. vancomycin [18]: 7; MIC ([18]; C. difficile AIU ribotype 027, plate drop assay): 6.25 µM (≈ 10.2 µg/mL)
